{"source": "patent US20100047227A1", "about": "“NOVEL ANTICANCER CATHEPSIN FORMULATIONS AND ANTICANCER AGENT FOR USE IN COMBINED ANTICANCER THERAPY” (priority 2006, published 2010)", "assay_type_in_all_cases": "cell-based", "key": {"[1]": {"test_system": "human prostate cancer ALVA-41 cells", "experiment": "survival rate of cells (Cell Counting Kit-8), ALVA-41 cells", "settings": "for number of living cells: ALVA-41 cells, 20 hours", "procedure": "The survival rate of cells was measured by Cell Counting Kit-8 in accordance with a manufacturer's manual. The method will be described briefly as follows. A 96-well (each 100 μl) plate was inoculated with cells (1×10^4 cells) and incubated for 24 hours, and the cells were incubated in a non-serum culture medium Opti-MEM together with a given concentration of each cathepsin purified from rat stomach (References #27 and #60-#62). Thereafter, the kit reagent (10 μl) was added to each well and the wells were incubated for another 1 hour. After incubation, each well was measured at the absorbance of 450 nm with a microplate reader.\n(§1) In the figure, an indicating bar scale represents 50 μm. […] In the figure, an indicating bar scale represents 50 μm.\nIn this experiment, the survival rate of the ALVA-41 cells was measured by incubating the cells with cathepsin E of a given concentration in the presence or absence of pepstatin A (100 μM) at 37° C. and pH 7.4 for 20 hours. The data is represented as a percentage with respect to the value for non-treated cell group. The data were obtained as an average value±SD from the data obtained by four separate experiments. […] In this experiment, the HEK293 cells were incubated together with a given concentration of natural cathepsin E, wild-type recombinant and the active site mutant (D98A/D283A) at 37° C. and pH 7.4 for 20 hours. The survival rate of the cells was measured and represented as a percentage with respect to the value of the non-treated cell group. The data represents an average value±SD from the data obtained by four separate experiments. In the value, *p<0.001 is a corresponding value for the cells treated with the mutant. […] In this experiment, ALVA-41 cells were treated solely with cathepsin E of a given concentration in the same manner as for FIG. 2A and the culture supernatant was recovered, followed by centrifuging to remove the precipitate and transferring a portion ([…]) of the supernatant to a freshly prepared culture of ALVA-41 cells. Thereafter, the cells were incubated at 37° C. and pH 7.4 for 20 hours in the absence (black round mark) or presence (white round mark) of pepstatin A (100 μM) and measured for the survival rate of the cells. The cell survival rate is represented as a percentage with respect to the value of the cells treated with the culture supernatant of the ALVA-41 cells treated with physiological saline. The data is represented as an average value±SD from the data obtained by four separate experiments. […] The cathepsin E activity (on the upper panel) and the cytotoxic activity (on the lower panel) of each column fraction were determined using freshly prepared ALVA-41 cells and a cathepsin E-specific substrate. The cell survival rate of each fraction treated with the protein at a given final concentration is represented as a percentage with respect to the value of the cells treated with physiological saline and as an average value±SD from the data obtained by four separate experiments. The cathepsin E activity is represented as a percentage of the total activity in the culture supernatant, and the data is represented as an average±SD from the data obtained by three separate experiments."}, "[2]": {"test_system": "human prostate cancer ALVA-41 cells", "experiment": "measurement for apoptosis (morphology, annexin V staining, TUNEL assay), ALVA-41 cells", "settings": "for effect of caspase inhibitor on cell death of cancer cells caused by cathepsin E: ALVA-41 cells treated with cathepsin E", "procedure": "The cells were measured for a morphological variation of apoptosis by phase contrast microscopy. The cells of prophase and post-phase apoptosis were detected by annexin V staining and TUNEL assay. In order to carry out the annexin V staining of ALVA-41 cells, the cells were exposed to cathepsin E or cathepsin L for 4 hours and centrifuged. After centrifugation, the separated cells were washed twice with PBS and incubated with fluorescein isothiocyanate-conjugated annexin V for 10 minutes at room temperature in a dark place. The cells that were positive as a result of the annexin V staining were then detected with fluorescence microscope. The TUNEL assay was carried out for the incubated tumor cells using Apop Tag Peroxidase Apoptosis Detection Kit and for heterografts using Tumor TACS In Situ Apoptosis Detection Kit.\nas §1"}, "[3]": {"test_system": "human leukemia U937 cells", "experiment": "survival of human leukemia U937 cells", "settings": "sole administration, 10 μg/ml"}}, "note": "Square brackets hold non-standard residues; d marks the D form. Peptide text beside a SMILES is read from it. * marks the point of attachment. Sta = CC(C)C[C@H](N)[C@@H](O)CC(=O)O; Isovaleryl = CC(C)CC(=O)*; Cbz = O=C(OCc1ccccc1)*; CH2F = FC*"}
{"compound": "cathepsin D", "values": [{"measurement": "number of living cells", "setting": "[1]; neutral pH, 10-100 μg/ml", "value": "increased the number of living cells in a concentration-dependent way"}]}
{"compound": "cathepsin L", "values": [{"measurement": "number of living cells", "setting": "[1]; high concentration range (50-100 μg/ml)", "value": "decreases the number of the living cells"}, {"measurement": "number of living cells", "setting": "[1]; low concentration (10 μg/ml)", "value": "increase in the number of these living cells"}, {"measurement": "staining with annexin V and TUNEL reagent", "setting": "[2]; ALVA-41 cells, 100 μg/ml", "value": "negative"}, {"measurement": "morphological changes of treated cells", "setting": "[2]; ALVA-41 cells, microscopy, 100 μg/ml", "value": "necrosis-like morphological changes"}]}
{"compound": "COc1cc([C@@H]2c3cc4c(cc3[C@@H](O[C@@H]3O[C@@H]5CO[C@@H](C)O[C@H]5[C@H](O)[C@H]3O)[C@H]3COC(=O)[C@H]23)OCO4)cc(OC)c1O", "note": "[etoposide]", "values": [{"measurement": "rate of apoptosis of U937 cells", "setting": "[3]", "value": "approximately 40%"}]}
{"compound": "DEVD-fmlk [reference compound]", "values": [{"measurement": "effect of caspase inhibitor on cell death of cancer cells caused by cathepsin E", "setting": "[2]", "value": "suppression"}]}
{"compound": "cathepsin B", "values": [{"measurement": "number of living cells", "setting": "[1]; neutral pH, 10-100 μg/ml", "value": "increased the number of living cells in a concentration-dependent way"}]}
{"compound": "COC(=O)C[C@H](NC(=O)[C@H](C)NC(=O)[C@@H](NC(=O)OCc1ccccc1)C(C)C)C(=O)CF", "note": "[z-VAD-fmlk, reference compound] (Cbz-Val-Ala-Asp(OMe)-CH2F)", "values": [{"measurement": "effect of caspase inhibitor on cell death of cancer cells caused by cathepsin E", "setting": "[2]", "value": "suppression"}]}
{"compound": "CC(C)CC(=O)N[C@H](C(=O)N[C@H](C(=O)N[C@@H](CC(C)C)[C@@H](O)CC(=O)N[C@@H](C)C(=O)N[C@@H](CC(C)C)[C@@H](O)CC(=O)O)C(C)C)C(C)C", "note": "[pepstatin A, reference compound] (Isovaleryl-VV[Sta]A[Sta]-OH)", "values": [{"measurement": "effect on cytotoxicity of cathepsin E against cancer cells", "setting": "[1]; added to culture medium of ALVA-41 cells, pepstatin A 100 μM", "value": "suppressed"}]}
